Experiments:
[1] = tested on: hTR promoter; experiment: hTR-luc reporter, 293T cells; format: cell-based, human; settings: luciferase 24 h after transfection
Procedure: Also, cisplatinum stimulates the promoter's activity in GSE24-2 cells more than in the control cells (FIG. 2B). […] No effect was observed of the expression of GSE24-2 on the promoter hTR^9 using cells expressing DKC or GSE24-2 (FIG. 2C).
Transfection and analysis of gene expression. The 293T cells were transfected transiently using the calcium phosphate method, as described previously^39. The total amount of DNA was maintained constant at 10 μg per million cells. The X-DC cells were transfected transiently by electroporation with 3 μg of pLNCX-GSE24-2 per million cells. The cells VA13 MEFs were transfected with […] of DNA/per million cells using lipofectamine plus (Invitrogen), following the manufacturer's instructions. The protein extracts were prepared and luciferase measured using a commercial kit (Promega). Each test was carried out in triplicate and the experiments were repeated three times. The efficiency of transfection was corrected by co-transfection of the plasmid p-CMV-Renilla.

[2] = tested on: telomerase activity of 293T cell extracts; experiment: in vitro test of telomerase activity inhibition using cisplatinum (TRAP assay, telomeric probe); format: biochemical; settings: 293T cell extracts and telomere probe treated in vitro with cisplatinum; rising amounts of peptide
Procedure: This description for the first time describes use of the previously described peptide GSE 24.2 in an in vitro test of telomerase activity inhibition using cisplatinum with cell extracts from 293T cells and a telomere probe treated with cisplatinum. […] Additionally, the possible bond of the peptide GSE24-2 to the telomere sequence was analysed using gel shift tests, with an oligonucleotide that forms a loop (TEL1) which reconstructs the double chain sequence of the telomere with a small 3′ hanging sequence^41.
Production and purification of the peptide GSE24-2: The DH5α cells of E. coli were transformed with the vector pGATEV GSE24-2 and the lysates were prepared as described previously^33. The fusion protein was purified with glutathione-sepharose and the purity was analysed by means of gel electrophoresis. The GSE24-2 was obtained following digestion with the protease TEV following the manufacturer's instructions. Routinely, 90% was obtained of the digested protein according to what was obtained in SDS-PAGE electrophoresis. The protein was passed twice through a Hi-Trap Ni-NTA column in order to discard polyhistidine tails, undigested protein, TEV protease, and impurities.
Telomere repeat amplification protocol (TRAP). Telomerase activity was measured using the TRAPeze^37 telomerase detection kit (Intergen, Purchase, USA) following the manufacturer's instructions. […]

In the case of O=C1c2ccccc2-c2n[nH]c3cccc1c23 [SP60125], the “activity of the hTR promoter” value [1] is reported as “capable of activating the activity of this promoter”.
For “peptide GSE24-2: purified peptide GSE24-2 (SEQ ID NO2), fragment of dyskerin, produced in E. coli as fusion protein and cleaved with TEV protease (GFINLDKPSNPSSHEVVAWIRRILRVEKTGHSGTLDPKVTGCLIVCIERATRLVK; listed as Homo sapiens)”, the “telomerase activity of extracts under inhibition by cisplatinum” value [2] was “protect the telomerase activity of the extracts”.

From patent publication US20110300115A1, “USE OF INDUCTOR AGENTS GSE24.2 FOR PRODUCING PHARMACEUTICAL COMPOSITIONS FOR TREATING ILLNESSES RELATING TO CELLULAR SENESCENCE” (priority 2007, published 2011)
